Measurements from US11147796B2, “Agent for preventing or ameliorating hearing impairment” (Tohoku University, priority 2017, dated 2021).

How the values were obtained:
[1] = system: “m.1555A>G mutant” cells; test: Cell survival level (MTT assay, Cell Counting Kit-8) of BSO-treated cells; assay type: cell-based, human; settings: BSO 100 μM, 48 hours
Procedure: (§1) In the following Examples 2, 3, and 5, “m.1555A>G mutant” cells were obtained by skin reproductive to a patient having “m.1555A>G mutation” to obtain dermal fibroblasts, then 10% Primary culture was carried out in DMEM (low glucose) culture solution (manufactured by Nacalai Tesque, Inc) containing FBS (Fetal bovine serum) under the condition of 5% CO2/20% O2, at 37° C. and isolated. In the following Examples 4 and 5, the inner ear culture was carried out in DMEM (high glucose) culture medium containing 10% FBS (Fetal bovine serum) under the condition of 5% CO2/20% O2, at 37° C.
[1] […]
[2] […] Cell survival level was measured by MTT assay using Cell Counting Kit-8 (manufactured by Dojindo Laboratories). That is, 100 μL of Cell Count Reagent SF was added to each well, incubated for 2 hours, and after 3 seconds of stirring with a microplate reader, the absorbance was measured at 450 nm (reference 750 nm). In addition, the level of cytotoxicity was detected by measuring lactate dehydrogenase (LDH) activity released extracellularly using Cytotoxicity LDH Assay Kit-WST (manufactured by Dojindo Laboratories). That is, 100 μL each of Working Solution prepared in each well was added, incubated for 30 minutes, Stop Solution was added in 50 μL each, and after stirring for 3 seconds with a microplate reader, the absorbance was measured at 490 nm (reference 750 nm).

[2] = system: “m.1555A>G mutant” cells; test: Cytotoxicity level (extracellular LDH activity) of BSO-treated cells; assay type: cell-based, human; settings: BSO 100 μM, 48 hours
Procedure: as §1
(§2) [1] 2000 cells of “m.1555A>G mutant” cells were plated per well in a 96-well cell culture plate and cultured for 24 hours.
[2] Glutathione synthesis inhibitor BSO (L-Buthionine sulphoximine) (manufactured by Sigma-Aldrich) was mixed in the culture solution to be 100 μM and cultured for 24 hours (BSO-treated group). As a control, “m.1555A>G mutant” cells were cultured for 24 hours in the absence of BSO (control treatment group). For the BSO-treated group, the compound #5 synthesized in Example 1 was mixed into the culture solution so as to be at various concentrations (0.3, 1, 3, 10, and 30 μM) and cultured for 48 hours (N=4). As a control, the cells were cultured in the absence of compound #5 (DMSO was added so as to be 0.01%.). Cell survival level was measured by MTT assay using Cell Counting Kit-8 (manufactured by Dojindo Laboratories). That is, 100 μL of Cell Count Reagent SF was added to each well, incubated for 2 hours, and after 3 seconds of stirring with a microplate reader, the absorbance was measured at 450 nm (reference 750 nm). In addition, the level of cytotoxicity was detected by measuring lactate dehydrogenase (LDH) activity released extracellularly using Cytotoxicity LDH Assay Kit-WST (manufactured by Dojindo Laboratories). That is, 100 μL each of Working Solution prepared in each well was added, incubated for 30 minutes, Stop Solution was added in 50 μL each, and after stirring for 3 seconds with a microplate reader, the absorbance was measured at 490 nm (reference 750 nm).

[3] = system: Ndufs 4 KO mice; test: Hearing ability by auditory brainstem response (ABR) in Ndufs 4 KO mice; assay type: in vivo, mouse; settings: vs non-administration KO
Procedure: Ndufs 4 KO mice (mutant mice due to the substitution of the second exon of the Ndufs 4 gene with Neo sandwiched between loxP sequences) were purchased from Jacson Laboratory. The genetic background of the mouse was C57BL/6, and 60 days old (body weight 10 to 13 g) was used. Compound #5 (1 mg/kg body weight/day) synthesized in Example 1 was orally administered to Ndufs 4 KO mice (administration group of Ndufs 4 KO mice, n=5), between 28 and 60 days of age, at 60 days of age, the hearing ability of the compound #5 administration group was evaluated by auditory brainstem response (ABR). As a control, the hearing ability of Nudfs 4 KO mice not received compound #5 (non-administration group of Ndufs 4 KO mice, n=4), wild type mice not received compound #5 (non-administration group of wild type mice, n=3) and Ndufs 4 hetero KO mice not received compound N #5 (non-administration group of Ndufs 4 hetero KO mice, n=4) was assessed by ABR at 60 days of age. In measuring the hearing ability, a mixture of ketamine (100 mg/kg body weight) and xylazine (20 mg/kg body weight) were anesthetized by intraperitoneal injection of mice. ABR was also analyzed using TDT System 3 workstation and BioSigRP software (Tucker-Davis Technologies). The averaging (1000 times) of the evoked response to the tone burst sound of each frequency (4, 8, 12, 16, and 32 kHz) was recorded. Stimuli sounds were presented at 5 dB intervals from each frequency, 100 dB SPL (Sound Pressure Level) to 10 dB SPL. […]
Using Ndufs 4 KO mice and their littermate wild type mice (littermate wild type mice), the hearing power of littermate wild type mice not received compound #5 (non-administration group of wild-type mice, n=5), Ndufs 4 KO mice not received compound #5 (non-administration group of Ndufs 4 KO mice, n=5) and Ndufs 4 KO mice received compound #5 (administration group of Ndufs 4 KO mice, n=5) were evaluated by ABR at 28 days of age and 60 days of age according to the method described in the item “6-1” of Example 6. […]

[4] = system: inner ear cells; test: Amount of ATP production in cultured inner ear; assay type: cell-based, mouse; settings: compound 10 μM; 3 hour results
Procedure: as §1
[1] The inner ear of P3 mice was isolated and cultured in culture solution for 24 hours.
[2] The compound #5 synthesized in Example 1 was mixed in the culture solution to be 10 μM and cultured for various times (3 hours, 6 hours, and 12 hours). […] [3] The concentration of ATP in the culture solution was measured with “cellular” ATP assay reagent (manufactured by Toyo Binet).

[5] = system: “m.1555A>G mutant” cells; test: Cell survival level (MTT assay) of cisplatin- or gentamicin-treated cells; assay type: cell-based, human; settings: 24 hours; for reduction of the cell survival level by gentamicin: gentamicin 2000 μM
Procedure: as §1, §2
[2] Cisplatin (manufactured by Yakult Corporation) or gentamicin (manufactured by Nacalai Tesque, Inc.) was mixed into the culture solution to be 100 μM and 2000 μM, respectively, and the compound #5 synthesized in Example 1 was mixed with various concentrations (1 and 10 μM), and cultured for 24 hours (cisplatin-treated group and gentamicin-treated group). As a control, “m.1555A>G mutant” cells were cultured in the absence of cisplatin (control group) or cisplatin-treated group in the absence of compound #5 (DMSO was added to 0.01%) for 24 hours. Cell survival level was measured by MTT assay using Cell Counting Kit-8 (manufactured by Dojindo laboratories). Specifically, 100 μL of Cell Count Reagent SF was added to each well, followed by incubation for 2 hours, and then stirred with a microplate reader for 3 seconds. Then the absorbance with 450 nm (reference 750 nm) was measured.

For `O=C(CC(C(=O)O)c1c[nH]c2ccccc12)c1ccc(F)cc1F` (stereo not drawn) [compound #5, 4-(2,4-Difluorophenyl)-2-(1H-indol-3-yl)-4-oxo-butanoic Acid], the “decrease in cell survival level” value ([1]; compound 10 μM) was “significantly suppressed”, the “decrease in cell survival level” value ([1]; compound at least 1 μM) was “inhibited” and the “increase in the level of cytotoxicity” value ([2]; compound 3 μM, vs BSO-treated DMSO) was “a significant difference was observed”. The “increase in the level of cytotoxicity” value ([2]; compound at least 0.3 μM) was “suppressed”, the “increase in the level of cytotoxicity” value ([2]; compound at least 1 μM) was “reduced to a level almost unchanged from that of the control group” and the ABR threshold ([3]; Example 6, 1 mg/kg body weight/day oral, 28 to 60 days of age, measured at 60 days) was “lower than the ABR threshold in the non-administration group of Ndufs 4 KO mice”. For the same compound, the ABR threshold value ([3]; Example 7, 1 mg/kg body weight/day oral, at 60 days of age) was “decreased”, the ABR threshold ([3]; Example 8, 0.3 mg/kg body weight/day oral) was “decreased” and the “amount of ATP production” value [4] was “increases”. The “decrease in cell survival level due to cisplatin treatment” value ([5]; cisplatin 100 μM, compound 1 to 10 μM) was “significantly suppressed”, the “reduction of the cell survival level by gentamicin” value ([5]; compound 10 μM) was “significantly suppressed” and the “reduction of the cell survival level by gentamicin” value ([5]; compound at least 1 μM) was “suppressed”.
